The values below come from patent publication US20200095241A1, “SUBSTITUTED 1,2,4-THIADIAZOLYLPYRROLONES AND 1,2,4-THIADIAZOLYLHYDANTOINS AND SALTS THEREOF AND USE THEREOF AS HERBICIDES” (Bayer CropScience Aktiengesellschaft, priority 2016, published 2020).

The inhibition is how much of the control response was suppressed.

Structures are written as SMILES.

For one experiment, the target named is T1, photosystem II (PS II) (Spinacia oleracea, UniProt P69560).
T1 construct: the chloroplasts were osmotically ruptured and the thylakoid membranes were then obtained by centrifugation; from tissue; host or cells: fresh spinach leaves; thylakoid membranes isolated from chloroplasts
The experiment can be described thus: Measurement of the PS II activity in thylakoid membranes (DCPIP reduction). It counts as biochemical. The settings on record: 100 μM test compound, spinach thylakoid membranes, DCPIP 120 μM, 10 min at 22° C. with exposure to light; read-out: Effect (inhibition of PS II activity). The gist of the method: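 Thylakoid membranes from spinach leaves in 50 mM phosphate buffer pH 6.8, 10 mM KCl; light-driven reduction of 120 μM DCPIP followed at 595 nm for 10 min at 22 °C. Compounds tested at 100 μM stock in DMSO (2.5% final DMSO), with activity binned by % inhibition classes.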

Experiment [1] relates to Echinochloa crus-galli. As to the kind of experiment: Pre-emergence herbicidal action. The class given is in vivo. The settings on record: 1280 g/ha, after about 3 weeks. The procedure, abridged: (§1)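 Visual % damage vs untreated controls (100% = plants dead, 0% = like controls), scored ~3 wk after treatment. Soil-surface spray on freshly sown, soil-covered seeds; WP/EC formulations, 0.5% additive, 600 l/ha water; 1280 or 320 g/ha; greenhouse.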

The test system of experiment [2] is Polygonum convolvulus. The experiment can be described thus: Pre-emergence herbicidal action. It counts as in vivo. The settings on record: after about 3 weeks. The procedure, abridged: as §1
For experiment [3], the system named is Stellaria media. The experiment can be described thus: Pre-emergence herbicidal action. The settings on record: Stellaria media, 504 h, after about 3 weeks, read-out: Stellaria media, herbicidal effect scored visually. The class given is in vivo. The procedure, abridged: as §1
Experiment [4] concerns Viola tricolor. As to the kind of experiment: Pre-emergence herbicidal action. The settings on record: Viola tricolor, 504 h, after about 3 weeks, read-out: Viola tricolor, herbicidal effect scored visually. The class given is in vivo. The gist of the method:
as §1

In a further experiment the test system is Cyperus esculentus. The experiment can be described thus: Pre-emergence herbicidal action. The settings on record: 1280 g/ha, after about 3 weeks. It counts as in vivo. The gist of the method: as §1
Experiment [5] relates to Setaria viridis. As to the kind of experiment: Pre-emergence herbicidal action. It counts as in vivo. The settings on record: Setaria viridis, 504 h, after about 3 weeks, read-out: Setaria viridis, herbicidal effect scored visually. The gist of the method:
as §1

Experiment [6] concerns Matricaria inodora. As to the kind of experiment: Pre-emergence herbicidal action. The class given is in vivo. The settings on record: Tripleurospermum inodorum, 504 h, after about 3 weeks, read-out: Matricaria inodora, herbicidal effect scored visually. The gist of the method: as §1
The test system of experiment [7] is Alopecurus myosuroides. The experiment can be described thus: Pre-emergence herbicidal action. The class given is in vivo. The settings on record: after about 3 weeks. The procedure, abridged:
as §1

A further experiment has as its system Amaranthus retroflexus. As to the kind of experiment: Post-emergence herbicidal action. The settings on record: about 3 weeks after treatment. It counts as in vivo. The gist of the method: (§2)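 Plants grown from seed in sandy loam in the greenhouse were sprayed 2 to 3 weeks after sowing, at the one-leaf stage, with WP or EC formulations as aqueous suspension or emulsion plus 0.5% additive at 600 l/ha water. Application rates were 1280 g/ha or 320 g/ha. Activity was scored visually after about 3 weeks versus untreated controls (0% = like control, 100% = plants dead).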

Experiment [8] has as its system Echinochloa crus-galli. The experiment can be described thus: Post-emergence herbicidal action. The settings on record: 1280 g/ha, about 3 weeks after treatment. The class given is in vivo. The procedure, abridged: as §2
A further experiment deals with Veronica persica. As to the kind of experiment: Post-emergence herbicidal action. The settings on record: 1280 g/ha, about 3 weeks after treatment. The class given is in vivo. The gist of the method:
as §2

Experiment [9] deals with Polygonum convolvulus. The experiment can be described thus: Post-emergence herbicidal action. The class given is in vivo. The settings on record: 1280 g/ha, about 3 weeks after treatment. The procedure, abridged:
as §2

The test system of experiment [10] is Stellaria media. As to the kind of experiment: Post-emergence herbicidal action. It counts as in vivo. The settings on record: Stellaria media, 504 h, about 3 weeks after treatment, read-out: Stellaria media, herbicidal activity rated visually. The gist of the method: as §2
In experiment [11] the test system is Hordeum murinum. The experiment can be described thus: Post-emergence herbicidal action. The class given is in vivo. The settings on record: 1280 g/ha, about 3 weeks after treatment. The gist of the method:
as §2

For experiment [12], the system named is Viola tricolor. As to the kind of experiment: Post-emergence herbicidal action. It counts as in vivo. The settings on record: 504 h, about 3 weeks after treatment, read-out: Viola tricolor, herbicidal activity rated visually. The procedure, abridged:
as §2

The test system of experiment [13] is Pharbitis purpurea. The experiment can be described thus: Post-emergence herbicidal action. The class given is in vivo. The settings on record: about 3 weeks after treatment. The procedure, abridged:
as §2

Experiment [14] concerns Setaria viridis. As to the kind of experiment: Post-emergence herbicidal action. The settings on record: Setaria viridis, 504 h, about 3 weeks after treatment, read-out: Setaria viridis, herbicidal activity rated visually. The class given is in vivo. The procedure, abridged: as §2
Experiment [15] has as its system Matricaria inodora. The experiment can be described thus: Post-emergence herbicidal action. It counts as in vivo. The settings on record: about 3 weeks after treatment. The gist of the method: as §2
Experiment [16] deals with Abutilon theophrasti. As to the kind of experiment: Post-emergence herbicidal action. The class given is in vivo. The settings on record: Abutilon theophrasti, 504 h, about 3 weeks after treatment, read-out: Abutilon theophrasti, herbicidal activity rated visually. The gist of the method:
as §2

Experiment [17] has as its system Alopecurus myosuroides. As to the kind of experiment: Post-emergence herbicidal action. It counts as in vivo. The settings on record: 1280 g/ha, about 3 weeks after treatment. The gist of the method:
as §2

Experiment [18] has as its system Hordeum murinum. The experiment can be described thus: Pre-emergence herbicidal action. The settings on record: 320 g/ha, after about 3 weeks. It counts as in vivo. The gist of the method:
as §1

The test system of a further experiment is Lolium rigidum. The experiment can be described thus: Pre-emergence herbicidal action. It counts as in vivo. The settings on record: 1280 g/ha, after about 3 weeks. The procedure, abridged: as §1
For experiment [19], the system named is Pharbitis purpurea. As to the kind of experiment: Pre-emergence herbicidal action. The class given is in vivo. The settings on record: 1280 g/ha, after about 3 weeks. The gist of the method: as §1
Experiment [20] deals with Abutilon theophrasti. The experiment can be described thus: Pre-emergence herbicidal action. The settings on record: 1280 g/ha, after about 3 weeks. The class given is in vivo. The procedure, abridged:
as §1

`CC1=C(C)C(O)N(c2nc(C(C)C)ns2)C1=O` (stereo not drawn) [I.2-5, 3,4-Dimethyl-5-hydroxy-1-(3-(isopropyl)-1,2,4-thiadiazol-5-yl)-1,5-dihydro-2H-pyrrol-2-one]: the inhibition at 100 µM (stock) on photosystem II (PS II) is more than 90%. Further, the “Echinochloa crus-galli, herbicidal effect scored visually” value in the experiment on Echinochloa crus-galli [1] is reported as 80%. In the experiment on Polygonum convolvulus [2] (1280 g/ha), the “Polygonum convolvulus, herbicidal effect scored visually” value turned out to be 100%. Also, the pest or weed control at 1280 g/ha with Stellaria media [3], in the experiment with Viola tricolor [4], in the experiment on Setaria viridis [5], in the experiment with Matricaria inodora [6], with Stellaria media [10] and with Viola tricolor [12] was 100% in each case. For the same compound, the pest or weed control at 1280 g/ha in the experiment with Setaria viridis [14] (1280 g/ha) and in the experiment with Abutilon theophrasti [16] was 100% each time. Moreover, the “Cyperus esculentus, herbicidal effect scored visually” value in the experiment with Cyperus esculentus came out at 90%. Further, in the experiment with Alopecurus myosuroides [7] (1280 g/ha), the “Alopecurus myosuroides, herbicidal effect scored visually” value was 80%. In the experiment with Amaranthus retroflexus (1280 g/ha), the “Amaranthus retroflexus, herbicidal activity rated visually” value (shortened to “Amaranthus retroflexus”) is reported as 100%. For the same compound, the “Echinochloa crus-galli, herbicidal activity rated visually” value with Echinochloa crus-galli [8] stood at 90%. Further, the “Veronica persica, herbicidal activity rated visually” value in the experiment on Veronica persica is listed as 90%. Besides, the “Polygonum convolvulus, herbicidal activity rated visually” value with Polygonum convolvulus [9] was 80%. Further, the “Hordeum murinum, herbicidal activity rated visually” value in the experiment on Hordeum murinum [11] was determined as 100%. For the same compound, in the experiment with Pharbitis purpurea [13] (1280 g/ha), the “Pharbitis purpurea, herbicidal activity rated visually” value is recorded as 100%. Moreover, the “Matricaria inodora, herbicidal activity rated visually” value (“Matricaria inodora” below) with Matricaria inodora [15] (1280 g/ha) was 100%. Moreover, the “Alopecurus myosuroides, herbicidal activity rated visually” value in the experiment on Alopecurus myosuroides [17] is recorded as 80%.
Take `CC1=C(C)C(O)N(c2nc(C3CC3)ns2)C1=O` (stereo not drawn) [I.2-11, 3,4-Dimethyl-5-hydroxy-1-(3-cyclopropyl-1,2,4-thiadiazol-5-yl)-1,5-dihydro-2H-pyrrol-2-one]: at photosystem II (PS II), the inhibition at 100 µM (stock) is more than 90%. For the same compound, in the experiment on Polygonum convolvulus [2] (320 g/ha), the “Polygonum convolvulus, herbicidal effect scored visually” value is on record as 100%. In addition, the pest or weed control at 320 g/ha with Stellaria media [3] (320 g/ha), in the experiment with Viola tricolor [4] (320 g/ha), with Setaria viridis [5] (320 g/ha), with Matricaria inodora [6] (320 g/ha), with Stellaria media [10] (320 g/ha) and in the experiment on Viola tricolor [12] (320 g/ha) was 100% throughout. Also, the pest or weed control at 320 g/ha in the experiment on Setaria viridis [14] (320 g/ha) and with Abutilon theophrasti [16] (320 g/ha) was 100% each time. In addition, the “Hordeum murinum, herbicidal effect scored visually” value with Hordeum murinum [18] turned out to be 100%. For the same compound, the “Alopecurus myosuroides, herbicidal effect scored visually” value in the experiment with Alopecurus myosuroides [7] (320 g/ha) amounted to 90%. The “Amaranthus retroflexus” value in the experiment with Amaranthus retroflexus (320 g/ha) stood at 100%. Besides, the “Pharbitis purpurea, herbicidal activity rated visually” value in the experiment with Pharbitis purpurea [13] (320 g/ha) is listed as 100%. Further, the “Matricaria inodora” value in the experiment on Matricaria inodora [15] (320 g/ha) was 100%.
Turning to `CC1=C(Cl)C(=O)N(c2nc(C3CC3)ns2)C1O` (stereo not drawn) [I.3-11, 3-Chloro-4-methyl-5-hydroxy-1-(3-cyclopropyl-1,2,4-thiadiazol-5-yl)-1,5-dihydro-2H-pyrrol-2-one], the inhibition at 100 µM (stock) on photosystem II (PS II) is more than 90%. For the same compound, the “Polygonum convolvulus, herbicidal effect scored visually” value in the experiment on Polygonum convolvulus [2] (1280 g/ha) came out at 80%. Also, the pest or weed control at 1280 g/ha in the experiment on Stellaria media [3] came out at 100%; in the experiment with Viola tricolor [4], 100%; with Setaria viridis [5] it was 90%; with Matricaria inodora [6], 100%; in the experiment on Stellaria media [10], 100%; with Viola tricolor [12] it was 100%. In addition, the pest or weed control at 1280 g/ha in the experiment with Abutilon theophrasti [16] was determined as 100%. The “Lolium rigidum, herbicidal effect scored visually” value with Lolium rigidum turned out to be 80%. Also, in the experiment with Pharbitis purpurea [19], the “Pharbitis purpurea, herbicidal effect scored visually” value is listed as 100%. Also, in the experiment on Abutilon theophrasti [20], the “Abutilon theophrasti, herbicidal effect scored visually” value is listed as 80%. Further, the “Alopecurus myosuroides, herbicidal effect scored visually” value in the experiment with Alopecurus myosuroides [7] (1280 g/ha) was determined as 100%. In the experiment with Amaranthus retroflexus (1280 g/ha), the “Amaranthus retroflexus” value came to 100%. Further, the “Veronica persica, herbicidal activity rated visually” value with Veronica persica worked out at 80%. Further, the “Pharbitis purpurea, herbicidal activity rated visually” value with Pharbitis purpurea [13] (1280 g/ha) is 100%. The “Matricaria inodora” value with Matricaria inodora [15] (1280 g/ha) was 90%. Further, in the experiment on Alopecurus myosuroides [17], the “Alopecurus myosuroides, herbicidal activity rated visually” value stood at 80%.
